# Experimental data published in patent US20250171461A1, “STIMULATOR OF INTERFERON GENES (STING) MODULATORS, AND COMPOSITIONS AND METHODS THEREOF” (Geode Therapeutics Inc., priority 2022, published 2025).
# Biological target: T1, human HAQ STING isoform (hSTING HAQ) (Homo sapiens, UniProt Q86WV6, G230A/H232R/R293Q/R71H)
# T1 construct: THP1 cells express the naturally occurring human HAQ STING isoform (hSTING HAQ); host or cells: THP1
# Assay: IFN-β mRNA level in THP1 cells (qPCR, STING agonist cellular activity)
# Format: cell-based
# Details: compound at 3.6 μM, 2 hrs, IFNβ expression normalized against GAPDH by the 2^-ΔΔCT method, DMSO = 1.0
# Experimental: Cellular activity of STING agonists was determined by mRNA levels of IFN-β in THP1 (Otwo Biotech HTX1621) cell line. THP1 cells express the naturally occurring human HAQ STING isoform (hSTING HAQ), which responses to the activation of STING agonists.
# THP1 cells were seeded into Falcon 12-well cell Culture Plate (Corning #353043) at 9×10^5 cells per well, in 1 ml complete culture medium (RPMI-1640, GIBCO #C1187500BT) containing 10% heat inactivated FBS (GIBCO #10099141C), 1% Pen-Strep (HyClone SV30010) and incubated at 37° ΔC, 5% CO2 overnight. On day 2, compound (final concentration at 3.6 μM) or DMSO (0.1%, Sigma Aldrich #8418) was added to THP1 cells and further incubated for 2 hrs min at 37° ΔC, 5% CO2. Cells were then collected for RNA extraction.
# Total RNA was extracted with TRIzol reagent (Invitrogen #15596026) and […] was used to synthesize first-strand cDNA with Maxima First Strand cDNA Synthesis Kit (TAKARA #RR036A). Quantitative PCR was performed with Maxima SYBR Green qPCR Master Mix (ABI #4367659, USA). The primer sequences used were as follows: GAPDH (5′-[…]-3′, 5′-[…]-3′). INFP3 (5′-[…]-3′,5′-[…]-3′) Real-time PCR was performed on QuantStudio™ 5 Real-Time PCR System (Thermo Fisher). Relative expression levels of IFNβ gene were normalized against the level of GAPDH expression by the 2^−ΔΔCT method. Each PCR reaction was performed in triplicates.
# T1 sequence (Q86WV6 whole entry R71H/G230A/H232R/R293Q, canonical isoform): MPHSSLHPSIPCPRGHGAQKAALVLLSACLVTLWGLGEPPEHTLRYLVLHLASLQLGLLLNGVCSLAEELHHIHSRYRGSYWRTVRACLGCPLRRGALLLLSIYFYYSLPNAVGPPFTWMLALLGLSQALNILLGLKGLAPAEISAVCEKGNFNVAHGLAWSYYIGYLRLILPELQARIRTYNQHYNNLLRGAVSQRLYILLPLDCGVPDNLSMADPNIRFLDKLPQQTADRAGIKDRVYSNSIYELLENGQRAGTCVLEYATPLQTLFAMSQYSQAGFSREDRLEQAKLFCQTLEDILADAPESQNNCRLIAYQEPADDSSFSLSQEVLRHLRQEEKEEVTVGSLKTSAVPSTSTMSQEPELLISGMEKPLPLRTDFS
row,SMILES,Relative mRNA INFβ/GAPDH THP 1
1,"CC1COc2c(F)c(F)cc3c(=O)c(CN(Cc4ccncc4)[C@H]4CCCN(c5ccc(N)nc5)C4)cn1c23 (stereo partly drawn) [Compound 2, 6-((((S)-1-(6-aminopyridin-3-yl)piperidin-3-yl)(pyridin-4-ylmethyl)amino)methyl)-9,10-difluoro-3-methyl-2H-[1,4]oxazino[2,3,4-ij]quinolin-7(3H)-one]",1261.9
2,"COc1cc(CN(Cc2cn3c4c(c(F)c(F)cc4c2=O)OC[C@H]3C)[C@H]2CCCN(c3ccc(N)nc3)C2)ccn1 [Compound 5, (R)-6-((((S)-1-(6-aminopyridin-3-yl)piperidin-3-yl)((2-methoxypyridin-4-yl)methyl)amino)methyl)-9,10-difluoro-3-methyl-2H-[1,4]oxazino[2,3,4-ij]quinolin-7(3H)-one]",1627.5
3,"COc1cc(CN(Cc2cn3c4c(c(F)c(F)cc4c2=O)OC[C@@H]3C)[C@H]2CCCN(c3ccc(N)nc3)C2)ccn1 [Compound 6, (S)-6-((((S)-1-(6-aminopyridin-3-yl)piperidin-3-yl)((2-methoxypyridin-4-yl)methyl)amino)methyl)-9,10-difluoro-3-methyl-2H-[1,4]oxazino[2,3,4-ij]quinolin-7(3H)-one]",1595.2
4,"COc1cc(CN(Cc2cn3c4c(c(F)c(F)cc4c2=O)OCC3C)[C@H]2CCCN(c3ccc(NC(C)=O)nc3)C2)ccn1 (stereo partly drawn) [Compound 7, N-(5-((3S)-3-(((9,10-difluoro-3-methyl-7-oxo-3,7-dihydro-2H-[1,4]oxazino[2,3,4-ij]quinolin-6-yl)methyl)((2-methoxypyridin-4-yl)methyl)amino)piperidin-1-yl)pyridin-2-yl)acetamide]",65.3
5,"COc1cc(CCN(Cc2cn3c4c(c(F)c(F)cc4c2=O)OCC3C)[C@H]2CCCN(c3ccc(N)nc3)C2)ccn1 (stereo partly drawn) [Compound 8, 6-((((S)-1-(6-aminopyridin-3-yl)piperidin-3-yl)(2-(2-methoxypyridin-4-yl)ethyl)amino)methyl)-9,10-difluoro-3-methyl-2H-[1,4]oxazino[2,3,4-ij]quinolin-7(3H)-one]",5.7
6,"Cc1ccc(N2CCC[C@H](N(Cc3ccnc(C)c3)Cc3cn4c5c(c(F)c(F)cc5c3=O)OCC4C)C2)cn1 (stereo partly drawn) [Compound 9, 9,10-difluoro-3-methyl-6-((((S)-1-(6-methylpyridin-3-yl)piperidin-3-yl)((2-methylpyridin-4-yl)methyl)amino)methyl)-2H-[1,4]oxazino[2,3,4-ij]quinolin-7(3H)-one]",332.6
7,"Cc1cc(CN(Cc2cn3c4c(c(F)c(F)cc4c2=O)OCC3C)[C@H]2CCCN(c3ccc(C#N)nc3)C2)ccn1 (stereo partly drawn) [Compound 12, 5-((3S)-3-(((9,10-difluoro-3-methyl-7-oxo-3,7-dihydro-2H-[1,4]oxazino[2,3,4-ij]quinolin-6-yl)methyl)((2-methylpyridin-4-yl)methyl)amino)piperidin-1-yl)picolinonitrile]",14.1
8,"Cc1cc(CN(Cc2cn3c4c(c(F)c(F)cc4c2=O)OCC3C)[C@H]2CCCN(c3ccc(C(N)=O)nc3)C2)ccn1 (stereo partly drawn) [Compound 13, 5-((3S)-3-(((9,10-difluoro-3-methyl-7-oxo-3,7-dihydro-2H-[1,4]oxazino[2,3,4-ij]quinolin-6-yl)methyl)((2-methylpyridin-4-yl)methyl)amino)piperidin-1-yl)picolinamide]",3.6
9,"CNc1ccc(N2CCC[C@H](N(Cc3ccnc(OC)c3)Cc3cn4c5c(c(F)c(F)cc5c3=O)OCC4C)C2)cn1 (stereo partly drawn) [Compound 16, 9,10-difluoro-6-((((2-methoxypyridin-4-yl)methyl)((S)-1-(6-(methylamino)pyridin-3-yl)piperidin-3-yl)amino)methyl)-3-methyl-2H-[1,4]oxazino[2,3,4-ij]quinolin-7(3H)-one]",114.6
10,"COc1cc(CN(Cc2cn3c4c(c(F)c(F)cc4c2=O)OCC3C)[C@H]2CCCN(c3ccc(N4CCCC4=O)nc3)C2)ccn1 (stereo partly drawn) [Compound 18, 9,10-difluoro-6-((((2-methoxypyridin-4-yl)methyl)((S)-1-(6-(2-oxopyrrolidin-1-yl)pyridin-3-yl)piperidin-3-yl)amino)methyl)-3-methyl-2H-[1,4]oxazino[2,3,4-ij]quinolin-7(3H)-one]",4.8

# Second part, the compound after the results:
row,Relative mRNA INFβ/GAPDH THP 1,SMILES
1,1356.3,"Cc1cc(CN(Cc2cn3c4c(c(F)c(F)cc4c2=O)OCC3C)[C@H]2CCCN(c3ccc(N)nc3)C2)ccn1 (stereo partly drawn) [Compound 3, 6-((((S)-1-(6-aminopyridin-3-yl)piperidin-3-yl)((2-methylpyridin-4-yl)methyl)amino)methyl)-9,10-difluoro-3-methyl-2H-[1,4]oxazino[2,3,4-ij]quinolin-7(3H)-one]"
2,587.4,"COc1cc(CN(Cc2cn3c4c(c(F)c(F)cc4c2=O)OCC3C)[C@H]2CCCN(c3ccc(N)nc3)C2)c(Cl)cn1 (stereo partly drawn) [Compound 4, 6-((((S)-1-(6-aminopyridin-3-yl)piperidin-3-yl)((5-chloro-2-methoxypyridin-4-yl)methyl)amino)methyl)-9,10-difluoro-3-methyl-2H-[1,4]oxazino[2,3,4-ij]quinolin-7(3H)-one]"
3,336.8,"Cc1cc(CN(Cc2cn3c4c(c(F)c(F)cc4c2=O)OCC3C)[C@H]2CCCN(c3cccnc3)C2)ccn1 (stereo partly drawn) [Compound 10, 9,10-difluoro-3-methyl-6-((((2-methylpyridin-4-yl)methyl)((S)-1-(pyridin-3-yl)piperidin-3-yl)amino)methyl)-2H-[1,4]oxazino[2,3,4-ij]quinolin-7(3H)-one]"
4,65.6,"Cc1ccc(N2CCC[C@H](N(Cc3ccnc(N)c3)Cc3cn4c5c(c(F)c(F)cc5c3=O)OCC4C)C2)cn1 (stereo partly drawn) [Compound 11, 6-((((2-aminopyridin-4-yl)methyl)((S)-1-(6-methylpyridin-3-yl)piperidin-3-yl)amino)methyl)-9,10-difluoro-3-methyl-2H-[1,4]oxazino[2,3,4-ij]quinolin-7(3H)-one]"
5,3848.9,"Cc1cc(CN(Cc2cn3c4c(c(F)c(F)cc4c2=O)OCC3C)[C@H]2CCCN(c3cnccn3)C2)ccn1 (stereo partly drawn) [Compound 14, 9,10-difluoro-3-methyl-6-((((2-methylpyridin-4-yl)methyl)((S)-1-(pyrazin-2-yl)piperidin-3-yl)amino)methyl)-2H-[1,4]oxazino[2,3,4-ij]quinolin-7(3H)-one]"
6,5.8,"COc1cc(CN(Cc2cn3c4c(c(F)c(F)cc4c2=O)OCC3C)[C@H]2CCN(c3ccc(N)nc3)C2)ccn1 (stereo partly drawn) [Compound 15, 6-((((S)-1-(6-aminopyridin-3-yl)pyrrolidin-3-yl)((2-methoxypyridin-4-yl)methyl)amino)methyl)-9,10-difluoro-3-methyl-2H-[1,4]oxazino[2,3,4-ij]quinolin-7(3H)-one]"
7,6.7,"COc1cc(CN(Cc2cn3c4c(c(F)c(F)cc4c2=O)OCC3C)[C@H]2CCCN(c3ccc(N4CCCC4)nc3)C2)ccn1 (stereo partly drawn) [Compound 17, 9,10-difluoro-6-((((2-methoxypyridin-4-yl)methyl)((S)-1-(6-(pyrrolidin-1-yl)pyridin-3-yl)piperidin-3-yl)amino)methyl)-3-methyl-2H-[1,4]oxazino[2,3,4-ij]quinolin-7(3H)-one]"
